Reference: patent US20260262643A1, “HERBICIDAL BENZOXAZINES” (FMC CORPORATION, priority 2022, published 2026)

Experiments:
kochia [1] = test: Test C postemergence; format: in vivo, Bassia scoparia; details: 10 days, 0 to 100 scale (0 no effect, 100 complete control)
Method in brief: (§1)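 Seeds in loam–sand blend received preemergence directed soil spray of test chemicals in non-phytotoxic solvent with surfactant; postemergence treatment was applied at one- to two-leaf stage (2–10 cm). After 10 days in greenhouse, injury rated visually versus untreated controls, 0 (no effect) to 100 (complete control).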

wheat [2] = test: Test C postemergence; format: in vivo, Triticum aestivum; details: 10 days, 0 to 100 scale (0 no effect, 100 complete control)
Method in brief: as §1

barnyardgrass [3] = test: Test C postemergence; format: in vivo, Echinochloa crusgalli; details: 10 days, 0 to 100 scale (0 no effect, 100 complete control)
Method in brief: as §1

blackgrass [4] = test: Test C preemergence; format: in vivo, Alopecurus myosuroides
Method in brief: as §1

corn [5] = test: Test C preemergence; format: in vivo, Zea mays
Method in brief: as §1

galium = test: Test C postemergence; format: in vivo, Galium aparine; details: 10 days, 0 to 100 scale (0 no effect, 100 complete control)
Method in brief: as §1

ragweed [6] = test: Test C postemergence; format: in vivo, Ambrosia artemisiifolia; details: 10 days, 0 to 100 scale (0 no effect, 100 complete control)
Method in brief: as §1

wheat [7] = test: Test C preemergence; format: in vivo, Triticum aestivum
Method in brief: as §1

barnyardgrass [8] = test: Test D flooded paddy test; format: in vivo, Echinochloa crus-galli; details: 250 g ai/ha, applied to paddy water, visual rating after 13 to 14 days, scale 0 to 100 (0 no effect, 100 complete control)
Method in brief: (§2)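 Plants at the 2-leaf stage were grown in pots flooded to 3 cm, and compound was applied directly into the paddy water, with depth kept throughout. After 13–14 days in a greenhouse, injury was rated visually against untreated controls on a 0–100 scale (100 = complete control); a dash means not tested.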

corn [9] = test: Test C postemergence; format: in vivo, Zea mays; details: 10 days, 0 to 100 scale (0 no effect, 100 complete control)
Method in brief: as §1

foxtail, giant [10] = test: Test C preemergence; format: in vivo, Setaria faberi
From the text: (§3) Seeds of plant species selected from barnyardgrass (Echinochloa crusgalli), blackgrass (Alopecurus myosuroides), corn (Zea mays), foxtail, giant (giant foxtail, Setaria faberi), green foxtail (Setaria viridis), goosegrass (Eleusine indica), kochia (Bassia scoparia), oat, wild (wild oat, Avena fatua), pigweed, palmer (palmer amaranth, palmer pigweed, Amaranthus palmeri), Pigweed, Redroot (redroot pigweed, Amaranthus retroflexus), ragweed (common ragweed, Ambrosia artemisiifolia), ryegrass, Italian ([…] ryegrass, Lolium multiflorum), soybean (Glycine max), and wheat (Triticum aestivum) were planted into a blend of loam soil and sand and treated preemergence with a directed soil spray using test chemicals formulated in a non-phytotoxic solvent mixture which included a surfactant. At the same time, plants selected from these crops and weed species and also galium (catchweed bedstraw, Galium aparine) and horseweed (Erigeron canadensis) were planted in pots containing the same blend of loam soil and sand and treated with postemergence applications of test chemicals formulated in the same manner. Plants ranged in height from 2 to 10 cm and were in the one- to two-leaf stage for the postemergence treatment. Treated plants and untreated controls were maintained in a greenhouse for 10 days, after which time all treated plants were compared to untreated controls and visually evaluated for injury. Plant response ratings, summarized in Table C, are based on a 0 to 100 scale where 0 is no effect and 100 is complete control. A dash (-) response means no test result.

pigweed, palmer [11] = test: Test C postemergence; format: in vivo, Amaranthus palmeri; details: 10 days, 0 to 100 scale (0 no effect, 100 complete control)
Method in brief: as §1

oat, wild [12] = test: Test C postemergence; format: in vivo, Avena fatua; details: 10 days, 0 to 100 scale (0 no effect, 100 complete control)
Method in brief: as §1

pigweed, palmer [13] = test: Test C preemergence; format: in vivo, Amaranthus palmeri
Method in brief: as §1

soybean [14] = test: Test C postemergence; format: in vivo, Glycine max; details: 10 days, 0 to 100 scale (0 no effect, 100 complete control)
Method in brief: as §1

sedge, umbrella = test: Test D flooded paddy test; format: in vivo, Cyperus difformis; details: 250 g ai/ha, applied to paddy water, visual rating after 13 to 14 days, scale 0 to 100 (0 no effect, 100 complete control)
Method in brief: as §2

barnyardgrass [15] = test: Test C preemergence; format: in vivo, Echinochloa crusgalli
Method in brief: as §1

horseweed = test: Test C postemergence; format: in vivo, Erigeron canadensis; details: 10 days, 0 to 100 scale (0 no effect, 100 complete control)
Method in brief: as §1

ducksalad = test: Test D flooded paddy test; format: in vivo, Heteranthera limosa; details: 250 g ai/ha, applied to paddy water, visual rating after 13 to 14 days, scale 0 to 100 (0 no effect, 100 complete control)
Method in brief: as §2

rice = test: Test D flooded paddy test; format: in vivo, Oryza sativa; details: 250 g ai/ha, applied to paddy water, visual rating after 13 to 14 days, scale 0 to 100 (0 no effect, 100 complete control)
Method in brief: as §2

ryegrass, Italian [16] = test: Test C preemergence; format: in vivo, Lolium multiflorum
Method in brief: as §1

blackgrass [17] = test: Test C postemergence; format: in vivo, Alopecurus myosuroides; details: 10 days, 0 to 100 scale (0 no effect, 100 complete control)
Method in brief: as §1

ragweed [18] = test: Test C preemergence; format: in vivo, Ambrosia artemisiifolia
Method in brief: as §1

kochia [19] = test: Test C preemergence; format: in vivo, Bassia scoparia
Method in brief: as §1

oat, wild [20] = test: Test C preemergence; format: in vivo, Avena fatua
Method in brief: as §1

foxtail, giant [21] = test: Test C postemergence; format: in vivo, Setaria faberi; details: 10 days, 0 to 100 scale (0 no effect, 100 complete control)
From the text: as §3

soybean [22] = test: Test C preemergence; format: in vivo, Glycine max
Method in brief: as §1

ryegrass, Italian [23] = test: Test C postemergence; format: in vivo, Lolium multiflorum; details: 10 days, 0 to 100 scale (0 no effect, 100 complete control)
Method in brief: as §1

[24] = 500 g ai/ha, preemergence, 0 to 100 scale (0 no effect, 100 complete control)
[25] = Preemergence, 125 g ai/ha, 0 to 100 scale, 0 no effect, 100 complete control

## CC(C)c1ncn(-c2cc(C(=O)N3CC(C(F)(F)F)Oc4c(Cl)cccc43)ccn2)n1 (single isomer, unassigned) [Compound 330]
Kochia [1]; 500 g ai/ha, postemergence
  Plant response rating, Kochia: 100
Kochia [1]; Postemergence, 125 g ai/ha
  Plant response rating, Kochia: 80
Wheat [2]; 500 g ai/ha, postemergence
  Plant response rating, Wheat: 30
Wheat [2]; Postemergence, 125 g ai/ha
  Plant response rating, Wheat: 20
Barnyardgrass [3]; 500 g ai/ha, postemergence
  Plant response rating, Barnyardgrass: 70
Barnyardgrass [3]; Postemergence, 125 g ai/ha
  Plant response rating, Barnyardgrass: 50
Blackgrass [4]; [24]
  Blackgrass plant response rating: 90
Blackgrass [4]; [25]
  Plant response rating, Blackgrass: 70
Corn [5]; [24]
  Corn plant response rating: 60
Corn [5]; [25]
  Plant response rating, Corn: 10
galium; 500 g ai/ha, postemergence
  Plant response rating, Galium: 100
galium; Postemergence, 125 g ai/ha
  Plant response rating, Galium: 100
Ragweed [6]; 500 g ai/ha, postemergence
  Plant response rating, Ragweed: 40
Ragweed [6]; Postemergence, 125 g ai/ha
  Plant response rating, Ragweed: 30
Wheat [7]; [24]
  Wheat plant response rating: 30
Wheat [7]; [25]
  Plant response rating, Wheat: 20
Barnyardgrass [8]
  Plant response rating, Barnyardgrass (Flood): 0
Corn [9]; 500 g ai/ha, postemergence
  Plant response rating, Corn: 90
Corn [9]; Postemergence, 125 g ai/ha
  Plant response rating, Corn: 70
foxtail, giant [10]; [24]
  Foxtail, Giant plant response rating: 100
foxtail, giant [10]; [25]
  Plant response rating, Foxtail, Giant: 100
pigweed, palmer [11]; 500 g ai/ha, postemergence
  Plant response rating, Pigweed, Palmer: 100
pigweed, palmer [11]; Postemergence, 125 g ai/ha
  Plant response rating, Pigweed, Palmer: 70
oat, wild [12]; 500 g ai/ha, postemergence
  Plant response rating, Oat, Wild: 70
oat, wild [12]; Postemergence, 125 g ai/ha
  Plant response rating, Oat, Wild: 30
pigweed, palmer [13]; [24]
  Pigweed, Palmer plant response rating: 100
pigweed, palmer [13]; [25]
  Plant response rating, Pigweed, Palmer: 100
Soybean [14]; 500 g ai/ha, postemergence
  Plant response rating, Soybean: 100
Soybean [14]; Postemergence, 125 g ai/ha
  Plant response rating, Soybean: 100
sedge, umbrella
  Plant response rating, Sedge, Umbrella (Flood): 0
Barnyardgrass [15]; [24]
  Barnyardgrass plant response rating: 100
Barnyardgrass [15]; [25]
  Plant response rating, Barnyardgrass: 70
horseweed; 500 g ai/ha, postemergence
  Plant response rating, Horseweed: 20
horseweed; Postemergence, 125 g ai/ha
  Plant response rating, Horseweed: 0
ducksalad
  Plant response rating, Ducksalad (Flood): 0
rice
  Plant response rating, Rice (Flood): 0
ryegrass, Italian [16]; [24]
  Ryegrass, Italian plant response rating: 100
ryegrass, Italian [16]; [25]
  Plant response rating, Ryegrass, Italian: 100
Blackgrass [17]; 500 g ai/ha, postemergence
  Plant response rating, Blackgrass: 90
Blackgrass [17]; Postemergence, 125 g ai/ha
  Plant response rating, Blackgrass: 40
Ragweed [18]; [24]
  Ragweed plant response rating: 50
Ragweed [18]; [25]
  Plant response rating, Ragweed: 0
Kochia [19]; [24]
  Kochia plant response rating: 90
Kochia [19]; [25]
  Plant response rating, Kochia: 30
oat, wild [20]; [24]
  Oat, Wild plant response rating: 60
oat, wild [20]; [25]
  Plant response rating, Oat, Wild: 30
foxtail, giant [21]; 500 g ai/ha, postemergence
  Plant response rating, Foxtail, Giant: 90
foxtail, giant [21]; Postemergence, 125 g ai/ha
  Plant response rating, Foxtail, Giant: 50
Soybean [22]; [24]
  Soybean plant response rating: 80
Soybean [22]; [25]
  Plant response rating, Soybean: 40
ryegrass, Italian [23]; 500 g ai/ha, postemergence
  Plant response rating, Ryegrass, Italian: 90
ryegrass, Italian [23]; Postemergence, 125 g ai/ha
  Plant response rating, Ryegrass, Italian: 40
